Measured values published in patent US8809001B2, “High throughput assays for inhibitors and activators of PAQR receptors” (University of Florida Research Foundation, Inc., priority 2007, dated 2014).
Where two headings read alike, the source gives them in different places.

Assays:
mPRγ = target: T1, mPRγ (Homo sapiens, UniProt Q9NXK6); assay: FET3-lacZ reporter repression in yeast expressing mPRγ; format: cell-based
T1 construct: Full length and truncated mPRγ and mPRα were expressed in wild type cells grown in 2% galactose from the pGREG536 vector; expressed in transfected cells; host or cells: Saccharomyces cerevisiae (BY4742 wild type; also gpa mutants), GAL1-driven plasmids
T1 sequence (Q9NXK6 1-330): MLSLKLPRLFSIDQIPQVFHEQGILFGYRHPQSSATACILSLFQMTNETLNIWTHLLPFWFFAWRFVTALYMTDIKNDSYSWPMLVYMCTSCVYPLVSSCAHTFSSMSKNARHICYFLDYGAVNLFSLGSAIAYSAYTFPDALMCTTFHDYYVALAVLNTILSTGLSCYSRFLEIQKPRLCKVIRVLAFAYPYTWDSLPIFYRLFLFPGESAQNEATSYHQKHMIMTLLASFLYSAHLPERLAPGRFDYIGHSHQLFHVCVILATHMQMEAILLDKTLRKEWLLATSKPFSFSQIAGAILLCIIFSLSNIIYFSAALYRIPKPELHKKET
Source text: (§1) Plasmids and primers. Human PAQRs were cloned into various vectors by PCR from commercially/publically available cDNAs. PAQRs were cloned into the pYES260 (Melcher, 2000), pRS316 (Liu et al., 1992) or pGREG536 (Jansen et al., 2005) expression vectors using gap repair. The pJK90 plasmid containing a Dual Topology Reporter (DTR)-tagged OST4 gene driven by the constitutive TPI1 promoter was kindly provided by Dr. Gunnar von Heijne (Stockholm University) (Kim et al., 2003). The OST4 open reading frame in pJK90 was replaced with the PAQR6 and mPRα open reading frames by gap repair. Primers for all cloning reactions are listed herein. Proteins expressed in pYES260 have an N-terminal 6×-histidine tag followed by a TEV protease cleavage site. Proteins expressed in pGREG536 have an N-terminal 7×-HA tag. Proteins expressed in the pRS316 vector are untagged. The pYES260, pRS316 and pGREG536 vectors allow for galactose-inducible expression via the GAL1 promoter. […] The FET3-lacZ plasmid was previously described (Kupchak et al., 2007). Plasmids derived from pADM4 carrying hyperactive alleles of Gpa1p (Gpa1p^Q323L) (Slessareva et al., 2006) and Gpa2p (Gpa2p^Q300L) (Harashima et al., 2002) driven by the ADH1 promoter were kindly provided by Dr. Henrik Dohlman (UNC Chapel Hill). A pRS316-based plasmid containing the STE2 gene under the control of the GAL1 promoter (Feng et al., 2000) was kindly provided by Dr. Nicholas G. Davis (Wayne State University).
Assays and growth conditions. Strains were maintained using standard protocol and grown in synthetic defined (SD) media with the appropriate amino acids to match the auxotrophies of the individual strains. Low Iron Medium (LIM) contains EDTA to limit iron-bioavailability and its composition has been previously described (Kupchak et al., 2007). […] In brief, overnights of cells grown in SD-glucose media were re-inoculated into iron-deficient LIM to induce the expression of FET3. 2% galactose was used as a carbon source to induce full expression of PAQR genes driven by the GAL1 promoter, while 0.05% galactose/1.95% raffinose was used for reduced PAQR expression. All ligands were added to the growth medium upon re-inoculation into LIM. For experiments in which steroids were added as ligands, steroids were added from ethanol stocks and “untreated” controls are actually treated with an equal volume of ethanol to control for vehicle effects. Cells were allowed to grow to mid-log phase at which time the activity of the FET3 gene was monitored using a FET3-lacZ promoter-reporter construct. lacZ activities are presented as a percentage of activity seen in untreated cells expressing the appropriate empty expression vector control. For individual experiments, each data point has been done in triplicate and the error bars represent +/−1 standard deviation. All experiments were performed at least three times and a representative experiment is shown. EC50 values were obtained using the web-based BioDataFit software using sigmoidal curve-fitting. (web site changbioscience.com/stat/ec50.html)

mPRα = target: T2, mPRα (Homo sapiens, UniProt Q86WK9); assay: cell-based
T2 construct: Full length and truncated mPRγ and mPRα were expressed in wild type cells grown in 2% galactose from the pGREG536 vector; expressed in transfected cells; host or cells: Saccharomyces cerevisiae (BY4742 wild type; also gpa mutants), GAL1-driven plasmids (TPI1 promoter in pJK90)
T2 sequence (Q86WK9 1-346): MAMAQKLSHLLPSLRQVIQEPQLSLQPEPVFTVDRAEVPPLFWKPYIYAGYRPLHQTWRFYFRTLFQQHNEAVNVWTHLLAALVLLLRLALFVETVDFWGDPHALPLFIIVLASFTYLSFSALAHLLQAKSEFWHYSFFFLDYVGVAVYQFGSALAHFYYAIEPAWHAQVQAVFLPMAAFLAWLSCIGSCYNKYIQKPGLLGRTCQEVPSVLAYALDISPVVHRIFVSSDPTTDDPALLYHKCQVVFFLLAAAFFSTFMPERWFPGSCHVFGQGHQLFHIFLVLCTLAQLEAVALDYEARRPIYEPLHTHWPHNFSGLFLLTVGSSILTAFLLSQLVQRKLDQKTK
Source text: Plasmids and primers. Human PAQRs were cloned into various vectors by PCR from commercially/publically available cDNAs. […] The OST4 open reading frame in pJK90 was replaced with the PAQR6 and mPRα open reading frames by gap repair. Primers for all cloning reactions are listed herein. Proteins expressed in pYES260 have an N-terminal 6×-histidine tag followed by a TEV protease cleavage site. Proteins expressed in pGREG536 have an N-terminal 7×-HA tag. Proteins expressed in the pRS316 vector are untagged. The pYES260, pRS316 and pGREG536 vectors allow for galactose-inducible expression via the GAL1 promoter. […] A pRS316-based plasmid containing the STE2 gene under the control of the GAL1 promoter (Feng et al., 2000) was kindly provided by Dr. Nicholas G. Davis (Wayne State University).
Assays and growth conditions. Strains were maintained using standard protocol and grown in synthetic defined (SD) media with the appropriate amino acids to match the auxotrophies of the individual strains. […] In brief, overnights of cells grown in SD-glucose media were re-inoculated into iron-deficient LIM to induce the expression of FET3. […] All ligands were added to the growth medium upon re-inoculation into LIM. For experiments in which steroids were added as ligands, steroids were added from ethanol stocks and “untreated” controls are actually treated with an equal volume of ethanol to control for vehicle effects. […] All experiments were performed at least three times and a representative experiment is shown. EC50 values were obtained using the web-based BioDataFit software using sigmoidal curve-fitting. (web site changbioscience.com/stat/ec50.html)

PAQR6 = target: T3, PAQR6 (Homo sapiens, UniProt Q6TCH4); assay: FET3-lacZ reporter repression in yeast expressing PAQR6; format: cell-based; settings: FET3-lacZ
T3 construct: expressed in transfected cells; host or cells: Saccharomyces cerevisiae BY4742, GAL1-driven pYES260 plasmid
T3 sequence (Q6TCH4 1-344): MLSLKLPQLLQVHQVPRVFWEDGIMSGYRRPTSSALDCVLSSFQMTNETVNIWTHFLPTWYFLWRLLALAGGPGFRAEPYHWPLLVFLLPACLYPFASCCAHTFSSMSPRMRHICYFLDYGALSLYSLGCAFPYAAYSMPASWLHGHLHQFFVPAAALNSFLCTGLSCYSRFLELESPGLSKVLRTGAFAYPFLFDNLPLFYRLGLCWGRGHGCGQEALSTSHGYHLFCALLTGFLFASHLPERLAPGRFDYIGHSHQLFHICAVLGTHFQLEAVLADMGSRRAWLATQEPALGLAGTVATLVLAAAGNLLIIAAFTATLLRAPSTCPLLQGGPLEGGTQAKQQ
Source text: as §1, with “Plasmids derived from pADM4 carrying hyperactive alleles of Gpa1p (Gpa1p^Q323L) (Slessareva et al., 2006) and Gpa2p (Gpa2p^Q300L) (Harashima et al., 2002) driven by the ADH1 promoter were kindly provided by Dr. Henrik Dohlman (UNC Chapel Hill). A pRS316-based plasmid containing the STE2 gene under the control of the GAL1 promoter (Feng et al., 2000) was kindly provided by Dr. Nicholas G. Davis (Wayne State University).” left out
(§2) Assays and growth conditions. […] Cells were allowed to grow to mid-log phase at which time the activity of the FET3 gene was monitored using a FET3-lacZ promoter-reporter construct. lacZ activities are presented as a percentage of activity seen in untreated cells expressing the appropriate empty expression vector control. […]

PAQR9 = target: T4, PAQR9 (Homo sapiens, UniProt Q6ZVX9); assay: FET3-lacZ reporter repression in yeast expressing PAQR9; format: cell-based; settings: FET3-lacZ
T4 construct: expressed in transfected cells; host or cells: Saccharomyces cerevisiae BY4742, GAL1-driven pYES260 plasmid
T4 sequence (Q6ZVX9 1-377): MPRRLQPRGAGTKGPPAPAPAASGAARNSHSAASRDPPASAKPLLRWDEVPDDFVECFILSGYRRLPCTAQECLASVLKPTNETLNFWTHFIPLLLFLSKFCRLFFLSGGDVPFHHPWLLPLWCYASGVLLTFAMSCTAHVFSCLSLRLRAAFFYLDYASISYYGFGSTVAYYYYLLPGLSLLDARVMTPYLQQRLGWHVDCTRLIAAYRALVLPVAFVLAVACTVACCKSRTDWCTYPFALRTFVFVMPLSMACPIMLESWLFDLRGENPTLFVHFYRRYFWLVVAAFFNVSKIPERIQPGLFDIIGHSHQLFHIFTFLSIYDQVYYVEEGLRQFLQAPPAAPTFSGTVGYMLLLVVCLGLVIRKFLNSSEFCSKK
Source text: as §1
Assays and growth conditions. Strains were maintained using standard protocol and grown in synthetic defined (SD) media with the appropriate amino acids to match the auxotrophies of the individual strains. Low Iron Medium (LIM) contains EDTA to limit iron-bioavailability and its composition has been previously described (Kupchak et al., 2007). […] Cells were allowed to grow to mid-log phase at which time the activity of the FET3 gene was monitored using a FET3-lacZ promoter-reporter construct. lacZ activities are presented as a percentage of activity seen in untreated cells expressing the appropriate empty expression vector control. […]

Ste2p GPCR = target: T5, Ste2p GPCR (Saccharomyces cerevisiae, UniProt D6VTK4); assay: FET3-lacZ reporter in yeast overexpressing Ste2p GPCR; format: cell-based; settings: 1 μM; overexpressed Ste2p, wild type cells (mat a), 2% galactose
T5 construct: expressed in transfected cells; host or cells: Saccharomyces cerevisiae wild type (mat a), pRS316-based GAL1-STE2 plasmid
T5 sequence (D6VTK4 1-431): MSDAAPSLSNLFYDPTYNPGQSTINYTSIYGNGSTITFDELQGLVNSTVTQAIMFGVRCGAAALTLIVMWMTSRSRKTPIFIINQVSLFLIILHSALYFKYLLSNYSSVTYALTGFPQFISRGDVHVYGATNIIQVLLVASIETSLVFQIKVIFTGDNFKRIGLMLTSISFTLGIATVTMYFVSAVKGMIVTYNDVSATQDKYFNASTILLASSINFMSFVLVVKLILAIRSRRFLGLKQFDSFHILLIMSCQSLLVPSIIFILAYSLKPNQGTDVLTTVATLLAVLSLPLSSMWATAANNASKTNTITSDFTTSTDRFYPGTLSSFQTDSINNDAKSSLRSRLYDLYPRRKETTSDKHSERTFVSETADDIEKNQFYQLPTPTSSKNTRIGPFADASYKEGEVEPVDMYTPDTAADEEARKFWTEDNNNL
Source text: as §1, with “Plasmids derived from pADM4 carrying hyperactive alleles of Gpa1p (Gpa1p^Q323L) (Slessareva et al., 2006) and Gpa2p (Gpa2p^Q300L) (Harashima et al., 2002) driven by the ADH1 promoter were kindly provided by Dr. Henrik Dohlman (UNC Chapel Hill). A pRS316-based plasmid containing the STE2 gene under the control of the GAL1 promoter (Feng et al., 2000) was kindly provided by Dr. Nicholas G. Davis (Wayne State University).” left out
as §2

pFET3-397 = pFET3-397 lacZ reporter in yeast with AMPK activator in the growth medium; format: cell-based, Saccharomyces cerevisiae; settings: 500 μM in the growth medium
Experimental: Most experiments were performed in a defined EDTA-containing medium known as low iron medium (LIM) (Eide et al., 1992). Iron-deficiency and repletion were generated by adding either 1 μM or 1 mM of FeCl3, respectively, to LIM. 2% galactose was used to fully induce GAL1-driven gene overexpression. Total sugar concentration was maintained at 2% by the addition of raffinose in those experiments in which the % galactose was modulated to decrease expression levels. Cells were allowed to grow to mid-log phase in LIM and β-galactosidase assays on permeabilized yeast were performed as previously described (Lyons et al., 2000). Ferroxidase activity assays on intact yeast cells followed published procedures using ferrozine as a colorimetric indicator of iron oxidation state (De Silva et al., 1995). All experiments include triplicate data points and each experiment was performed a minimum of three times. Representative experiments are shown. All error bars represent ±1 standard deviation within a single experiment. Because of the simplicity of β-galactosidase assays and the fact that Izh2p overexpression similarly affects both lacZ and ferroxidase activity, lacZ assays are shown for most experiments. For some strains with significant growth defects, such as snf1Δ, lacZ assays were not performed because of the low efficiency of co-transformation of lacZ reporter and overexpression plasmids. […]

[1] = FET3-lacZ, steroids up to 10 μM

For CC(=O)[C@@]1(O)CC[C@H]2[C@@H]3CCC4=CC(=O)CC[C@]4(C)[C@H]3CC[C@@]21C [17α-hydroxyprogesterone], the “agonist activity on mPRγ (in words)” value (mPRγ; [1]) was “effective activator”, the EC50 (mPRγ; mPRγ column of Table 4, ligand alone) was 9.3 nM and the “agonist activity on mPRα (in words)” value (mPRα; [1]) was “effective activator”. For the same compound, the “activation of mPRα, alterations at the 17 and 21 positions of the pregnane ring (in words)” value (mPRα; further analysis of mPRα (pRS316 plasmid, 2% galactose per FIG. 7C)) was “similarly effective activators”, the EC50 (mPRα; mPRα column of Table 4, ligand alone, read-out: EC50) was 10.2 nM and the EC50 (mPRα; read-out: EC50 for the activation of mPRα) was ~10 nM. The “activation of PAQR6 (in words)” value (PAQR6) was “can be activated” and the “activation of PAQR9 (in words)” value (PAQR9) was “can be activated”.

With α-factor the “effect on FET3” value (Ste2p GPCR) was “no effect”.

With NC(=O)c1ncn([C@@H]2O[C@H](CO)[C@@H](O)[C@H]2O)c1N [AICAR] the “effect on pFET3-397 activity” value (pFET3-397) was “small but reproducible decrease”.
